Experimental data published in patent US20200095236A1, “ANTIBACTERIAL COMPOUNDS” (FORGE THERAPEUTICS, INC., priority 2017, published 2020).
pIC50: −log10 of the molar value. Values after ≈ are worked out from the molar mass of the structure shown. Read-outs that look alike come from different tables or passages of the source.

Legend:
[1] = system: K. pneumoniae; assay: Bacterial susceptibility testing, MIC by broth microdilution (CLSI); format: cell-based; conditions: Klebsiella pneumoniae, read-out: K. pneumoniae MIC
In short: (§1)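 CLSI broth microdilution in cation-adjusted Mueller-Hinton broth with 2-fold serial drug dilutions; final inoculum 3×10^5–7×10^5 CFU/mL. Incubated 18-24 h at 35° C in ambient air; MIC is the lowest concentration preventing visible growth (OD600 nm<0.05).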

[2] = system: E. coli; assay: as above; format: cell-based; conditions: Escherichia coli, read-out: E. coli MIC
In short: as §1

[3] = system: S. aureus; assay: as above; format: cell-based; conditions: Staphylococcus aureus, read-out: S. aureus MIC
In short: as §1

[4] = biological target: E. coli LpxC (Escherichia coli, UniProt P0A725); assay: LpxC Binding Assay (Rapid Fire MS assay); format: biochemical
Chain of E. coli LpxC (P0A725 whole entry): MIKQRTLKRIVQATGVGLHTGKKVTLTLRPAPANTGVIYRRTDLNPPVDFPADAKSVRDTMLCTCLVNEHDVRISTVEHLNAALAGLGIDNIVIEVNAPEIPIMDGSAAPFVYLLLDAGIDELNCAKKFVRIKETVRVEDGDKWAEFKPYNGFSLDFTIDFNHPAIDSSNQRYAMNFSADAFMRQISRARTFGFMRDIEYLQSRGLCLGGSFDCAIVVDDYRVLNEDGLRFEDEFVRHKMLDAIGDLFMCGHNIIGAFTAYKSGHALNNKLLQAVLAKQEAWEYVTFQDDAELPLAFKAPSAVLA

[5] = system: TLR-4 activity of A. baumannii culture supernatants; assay: TLR4 assay: TLR4 activity of A. baumannii culture supernatants in HEK-Blue-hTLR4 cells; format: cell-based; conditions: Acinetobacter baumannii, HEK-Blue hTLR4, read-out: % TLR-4 activity
In short: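 A. baumannii was grown to mid-log phase with LpxC inhibitors, and culture supernatants were filter-sterilized and diluted 1:1000. Supernatant TLR4 activity was measured in HEK-Blue-hTLR4 cells carrying an NF-kB/AP-1-driven SEAP reporter and reported as % TLR-4 activity.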

[6] = broth microdilution, 35° C., 18-24 h

For `O=C(NCC(F)F)C(Cc1ccc(C#Cc2ccc(CN3CCOCC3)cc2)cc1)c1nc[nH]c(=O)c1O` (stereo not drawn) [Compound 1, N-(2,2-difluoroethyl)-2-(5-hydroxy-6-oxo-1,6-dihydropyrimidin-4-yl)-3-(4-((4-(morpholinomethyl)phenyl)ethynyl)phenyl) propanamide], the MIC [1, 6] was 1 to 8 µg/mL (≈ 1.91 to 15.3 µM), the MIC [2, 6] was < 1 µg/mL and the MIC [3, 6] was > 32 µg/mL. For the same compound, the pIC50 [4] was > 8.00, the activity at 4 µg/mL [5] was < 20% and the activity at 8 µg/mL [5] was < 20%. The activity at 16 µg/mL [5] was < 20%.

In the case of `O=C(NCC(Cc1ccc(C#Cc2ccc(CN3CCOCC3)cc2)cc1)c1nc[nH]c(=O)c1O)C(F)F` (stereo not drawn) [Compound 15, 2,2-difluoro-N-(2-(5-hydroxy-6-oxo-1,6-dihydropyrimidin-4-yl)-3-(4-((4-(morpholinomethyl)phenyl)ethynyl)phenyl)propyl)acetamide], the MIC [1, 6] was 1 to 8 µg/mL (≈ 1.91 to 15.3 µM), the MIC [2, 6] was < 1 µg/mL and the MIC [3, 6] was > 32 µg/mL. It also gave a pIC50 [4] of 7.30 to 8.00, an activity at 4 µg/mL [5] of 50 to 80% and an activity at 8 µg/mL [5] of 50 to 80%. For the same compound, the activity at 16 µg/mL [5] was < 20%.

In the case of `O=c1[nH]cnc(CCc2ccc(C#Cc3ccc(CNC4CCOCC4)cc3)cc2)c1O` [Compound 244, 5-hydroxy-6-(4-((4-(((tetrahydro-2H-pyran-4-yl)amino)methyl)phenyl)ethynyl)phenethyl)pyrimidin-4(3H)-one], the MIC [1, 6] was < 1 µg/mL, the MIC [2, 6] was < 1 µg/mL and the MIC [3, 6] was > 32 µg/mL. For the same compound, the pIC50 [4] was 6.00 to 7.00.

With `O=C(NCCF)C(Cc1ccc(C#Cc2ccc(CN3CCOCC3)cc2)cc1)c1nc[nH]c(=O)c1O` (stereo not drawn) [Compound 3, N-(2-fluoroethyl)-2-(5-hydroxy-6-oxo-1,6-dihydropyrimidin-4-yl)-3-(4-((4-(morpholinomethyl)phenyl)ethynyl)phenyl) propanamide] the MIC [1, 6] was 1 to 8 µg/mL (≈ 1.98 to 15.9 µM), the MIC [2, 6] was < 1 µg/mL and the MIC [3, 6] was > 32 µg/mL. The pIC50 [4] was 7.30 to 8.00, the activity at 4 µg/mL [5] was 50 to 80% and the activity at 8 µg/mL [5] was 20 to 50%. It also gave an activity at 16 µg/mL [5] of 20 to 50%.

With `O=C(NCC(F)(F)F)C(Cc1ccc(C#Cc2ccc(CN3CCOCC3)cc2)cc1)c1nc[nH]c(=O)c1O` (stereo not drawn) [Compound 2, 2-(5-hydroxy-6-oxo-1,6-dihydropyrimidin-4-yl)-3-(4-((4-(morpholinomethyl)phenyl)ethynyl)phenyl)-N-(2,2,2-trifluoroethyl) propanamide] the MIC [1, 6] was 1 to 8 µg/mL (≈ 1.85 to 14.8 µM), the MIC [2, 6] was < 1 µg/mL and the MIC [3, 6] was > 32 µg/mL. The pIC50 [4] was 7.30 to 8.00, the activity at 4 µg/mL [5] was < 20% and the activity at 8 µg/mL [5] was < 20%. The activity at 16 µg/mL [5] was < 20%.

With `O=c1[nH]cnc(C(CNCc2cccnc2)Cc2ccc(C#Cc3ccc(CN4CCOCC4)cc3)cc2)c1O` (stereo not drawn) [Compound 250, 5-hydroxy-6-(1-(4-((4-(morpholinomethyl)phenyl)ethynyl)phenyl)-3-((pyridin-3-ylmethyl)amino)propan-2-yl)pyrimidin-4(3H)-one] the MIC [1, 6] was > 32 µg/mL, the MIC [2, 6] was < 1 µg/mL and the pIC50 [4] was > 8.00.

In the case of `O=C(CF)NCC(Cc1ccc(C#Cc2ccc(CN3CCOCC3)cc2)cc1)c1nc[nH]c(=O)c1O` (stereo not drawn) [Compound 12, 2-fluoro-N-(2-(5-hydroxy-6-oxo-1,6-dihydropyrimidin-4-yl)-3-(4-((4-(morpholinomethyl)phenyl)ethynyl)phenyl)propyl) acetamide], the MIC [1] was 1 to 8 µg/mL (≈ 1.98 to 15.9 µM), the MIC [2] was < 1 µg/mL and the MIC [3] was > 32 µg/mL. It also gave a pIC50 [4] of 7.30 to 8.00.
